We go through six compounds from patent US8513233B2, “Pyrimidinyl-propionic acid derivatives and their use as PPAR agonists” (Shanghai Institute of Materia Medica, CAS, priority 2007, dated 2013).

One data set deals with MCF-7. Description: Growth inhibition, modified MTT assay, MCF-7. It is filed as cell-based. As to conditions: Homo sapiens, MCF7; MCF-7, MTT, mean of 3 independent tests. How it is done:
(§1) The growth inhibition was evaluated by the modified MTT assay. Briefly, the cells were seeded at 1×10^4 cells/well in 96-well plates (Falcon, Calif., USA), and incubated for 24 h in […] culture media with 10% FCS. The media were then replaced by serum-free medium. After 24 h, the media were placed in triplicate with grade concentrations of compounds. As controls, the cells were cultivated in DMEM/F12 only. The cells were then treated by MTT (Sigma, USA) assay, […] (5 g/L) for 4 h. After the removal of the supernatant, the purple-blue sediment was dissolved in 100 μL/well DMSO, and the optical densities were read on the multi-well scanning spectrophotometer (Labsystems Dragon, Finland) at 492 nm (A492). The growth inhibition rate (GIR) of the treated cells was calculated using Equation: GIR(%)={1−[A490/A490(control)]}×100% The results were also converted to IC50 (the compound concentration required for 50% growth inhibition of tumor cells), which were calculated by using the sigmoidal fitting model by the Origin 7.0 software (OriginLab, Northampton, Mass., USA). The mean IC50 was determined from the results of 3 independent tests.

The next data set relates to T24. Description: Growth inhibition, modified MTT assay, T24. In kind it is cell-based. Conditions: Homo sapiens, T-24, mean of 3 independent tests. The method, then: as §1
(Formazan colour is commonly taken as a measure of viable cells.)

A further data set has as its target T1, PPAR-γ (Homo sapiens, UniProt P37231).
T1 construct: expressed in transfected cells; host or cells: U2OS cells, transiently transfected with pcDNA3.1 expression vectors (FuGene6)
T1 sequence (P37231 1-505): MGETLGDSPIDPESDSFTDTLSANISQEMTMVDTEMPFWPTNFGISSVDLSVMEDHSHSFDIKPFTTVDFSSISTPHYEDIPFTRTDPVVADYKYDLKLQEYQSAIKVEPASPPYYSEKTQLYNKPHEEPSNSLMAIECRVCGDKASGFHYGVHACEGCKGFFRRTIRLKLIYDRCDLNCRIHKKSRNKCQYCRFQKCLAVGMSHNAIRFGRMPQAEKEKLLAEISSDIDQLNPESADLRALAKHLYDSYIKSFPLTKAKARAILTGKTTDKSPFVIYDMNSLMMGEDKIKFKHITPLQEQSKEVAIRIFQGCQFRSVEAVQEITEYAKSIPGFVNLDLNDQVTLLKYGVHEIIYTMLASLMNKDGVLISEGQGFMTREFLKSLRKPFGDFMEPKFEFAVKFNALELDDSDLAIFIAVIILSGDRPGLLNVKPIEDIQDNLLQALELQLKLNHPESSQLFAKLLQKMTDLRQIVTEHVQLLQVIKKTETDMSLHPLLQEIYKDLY
T1 sequence (P19793 1-462 partner): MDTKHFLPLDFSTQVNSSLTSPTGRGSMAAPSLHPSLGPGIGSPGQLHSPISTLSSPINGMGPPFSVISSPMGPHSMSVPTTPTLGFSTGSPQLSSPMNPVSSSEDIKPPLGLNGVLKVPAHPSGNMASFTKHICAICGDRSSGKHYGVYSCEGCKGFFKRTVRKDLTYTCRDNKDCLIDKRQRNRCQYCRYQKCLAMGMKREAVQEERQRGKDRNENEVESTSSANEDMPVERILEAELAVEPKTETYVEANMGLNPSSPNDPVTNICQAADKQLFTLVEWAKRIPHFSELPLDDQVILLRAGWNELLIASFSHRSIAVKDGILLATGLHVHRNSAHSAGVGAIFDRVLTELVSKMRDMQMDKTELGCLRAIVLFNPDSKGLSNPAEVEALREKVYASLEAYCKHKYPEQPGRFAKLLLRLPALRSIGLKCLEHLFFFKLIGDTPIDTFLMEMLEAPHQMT
Description: Transient transfection and transcription assay (luciferase reporter, U2OS cells). It is filed as cell-based. Conditions: 24 h treatment. The method, then: cDNAs for Human RXR, PPAR were obtained by RTPCR from the human liver or adipose tissues. Amplified cDNAs were cloned into pcDNA3.1 expression vector and the inserts were confirmed by sequencing. U2OS cells were cultured in McCoy's 5A with 10% heat-inactivated fetal bovine serum in a humidified 5% CO2 atmosphere at 37° C. Cells were seeded in 96-well plates the day before transfection to give a confluence of 50-80% at transfection. A total of 60 ng of DNA containing 10 ng of hRXR, 10 ng of pCMV Gal, 10 ng of nuclear receptor expression vectors and 30 ng of the corresponding reporters were cotransfected per well using FuGene6 transfection reagent according to the manufacturer's instructions. […] The final concentration of DMSO in culture medium was 0.1%. […] Luciferase activity was monitored using the luciferase assay kit according to the manufacturers instructions. Light emission was read in a Labsystems Ascent Fluoroskan reader. To measure galactosidase activity to normalize the luciferase data, 50 IL of supernatant from each transfection lysate was transferred to a new microplate. Galactosidase assays were performed in the microwell plates using a kit from Promega and read in a microplate reader. Compounds were tested in five concentrations ranging from 0.01 to 10 μM. […] The results were expressed as means (SD).
A general note: Reporter assays use an easily measured gene product as a stand-in for the process of interest.

A further data set concerns HepG2. Description: Growth inhibition, modified MTT assay, HepG2. In kind it is cell-based. Conditions: Homo sapiens, mean of 3 independent tests. The method, then: as §1
Data set [1] deals with Han:SPRD rat model of ADPKD. In kind it is in vivo. As to conditions: for 24-hour urine protein level / Blood urea nitrogen (BUN) levels: Treatment Group 10 mg/kg.d. An excerpt: Han: SPRD rats were obtained from our own breeding colony that is derived from animals that were kindly provided to us by Mayo Clinic (Rochester Minn.), All animal procedures and care were taken at the SPF-level Laboratory Animal Center of the Second Military Medical University (Shanghai, […].). Carboxymethyl cellulose sodium (CMC-Na) was purchased from Shanghai Chemical Reagent Company. Automatic clinical chemistry analyzer (Hitachi Clinical Analyzer 7080).
2.1 Experimental protocol: A total of 48 Han:SPRD rats (about ⅔ rats were Cy/+, ⅓ were +/+, homozygote rats −/− die within 3 weeks), all at 3 weeks of age, were randomized into 2 groups: negative control group and treatment groups (10 mg/kg.d compound 2). The rats of negative control group were given 1% CMC-Na, while the rats of treatment group were given 10 mg/kg.d compound 2 (suspended in 1% CMC-Na) by daily gavage from 3 weeks through 11 weeks of age, removal +/+ rats in both groups, then general animal feeds were given to rats in control group, the rats of treatment group were given animal feeds added by 0.03% of compound 2 (approximately 10 mg/kg. d), both groups were maintained with free access to water. Long-term observation of the rats until they died, record the length of their life span. 2.2 Physiological and biochemical indexes: since the day of treatment, general state and body weight of rats were examined and recorded every month, Blood (2 ml) was obtained from the rat orbital venous plexus using a glass capillary tube, then centrifuged for 10 minutes at 4000 rpm to collect serum for biochemical analysis including blood urea nitrogen (BUN), ALT, AST, serum lipids et. Urine was collected using Metabolic Cage for 24-hour urine protein analysis. 3.

For the next data set, the system named is SPC-A1. Description: Growth inhibition, modified MTT assay, SPC-A1. It is filed as cell-based. As to conditions: SPCA1, mean of 3 independent tests. How it is done:
as §1

Setting [2] is: after 2 months of treatment, P<0.001.

Where two headings read alike, the source gives them in different places. Where only a bound is given, the exact number is not on record here.

For the compound `CC(Cc1ccc(Oc2cc(N3CCN(Cc4ccccc4)CC3)nc(N)n2)cc1)(Oc1ccccc1)C(=O)O` (racemic) [Compound 2, rac-3-{4-[2-Amino-6-(4-benzyl-piperazin-1-yl)-pyrimidin-4-yloxy]-phenyl}-2-methyl-2-phenoxy-propionic acid], the concentration for half-maximal inhibition (IC50) (commonly the point on the concentration scale where inhibition reaches its midpoint) in the data set with MCF-7 is 55 µM; with T24, 72 µM; with HepG2 it was 80.6 µM; in the data set with SPC-A1, 65.5 µM. The concentration for a half-maximal effect (EC50) – broadly, the concentration giving half of the maximal effect – on PPAR-γ turned out to be 6.76 µM. Besides, the “24-hour urine protein level” value in data set [1] (1 month) came out at 62.3 ± 6.3 mg/24 h; in data set [1] (2 month), 64.1 ± 5.0 mg/24 h; in data set [1] (3 month), 67.1 ± 4.9 mg/24 h; in data set [1] (4 month) it was 66.3 ± 4.6 mg/24 h; in data set [1] (5 month), 67.1 ± 3.6 mg/24 h; in data set [1] (6 month), 66.0 ± 8.6 mg/24 h. The “24-hour urine protein level” value in data set [1] (7 month) was 64.4 ± 2.8 mg/24 h; in data set [1] (8 month) it was 70.4 ± 8.8 mg/24 h; in data set [1] (9 month), 67.8 ± 3.2 mg/24 h; in data set [1] (10 month), 70.0 ± 5.9 mg/24 h; in data set [1] (baseline), “Non-detected”. In addition, the “Blood urea nitrogen (BUN) levels” value amounted to 11.55 ± 0.57 mmol/L in data set [1] (1 month); 12.36 ± 0.77 mmol/L in data set [1] (2 month); 12.58 ± 1.35 mmol/L in data set [1] (3 month); 12.79 ± 1.41 mmol/L in data set [1] (4 month); 13.10 ± 1.64 mmol/L in data set [1] (5 month); 13.26 ± 1.05 mmol/L in data set [1] (6 month). Also, the “Blood urea nitrogen (BUN) levels” value was found to be 12.60 ± 1.40 mmol/L in data set [1] (7 month); 13.16 ± 1.73 mmol/L in data set [1] (8 month); 12.87 ± 2.72 mmol/L in data set [1] (9 month); 13.17 ± 3.70 mmol/L in data set [1] (10 month); 4.97 ± 0.67 mmol/L in data set [1] (baseline). The “average 24-hour urine protein level compared with the negative control group” value in data set [1] (setting [2]) is “lower”. For the same compound, the “average BUN level compared with control group” value in data set [1] (setting [2]) is reported as “lower”. Moreover, the “life span of Han:SPRD rats” value in data set [1] (at suitable dose, FIG. 1) is listed as “prolong the life span”. For the same compound, in data set [1] (rat, in vivo), the “change in body weight” value is recorded as “no statistically significant change”. For the same compound, in data set [1] (rat, in vivo), the “poisonous and side effects” value is “without any obvious poisonous and side effects”. Moreover, in data set [1] (rat, in vivo), the “serum ALT” value was “within the normal range”. Further, the “serum AST” value in data set [1] (rat, in vivo) is on record as “within the normal range”. Further, the serum lipids result in data set [1] (rat, in vivo) was “within the normal range”. Moreover, the average survival time in data set [1] (treatment group, long-term, 2 rats still alive) is given as at least 451.1 days.

On to `CC(Cc1ccc(Oc2cc(N3CCN(Cc4ccccc4)CC3)nc(N)n2)cc1)(Oc1ccc(-c2ccccc2)cc1)C(=O)O` (stereo not shown) [Compound 29, 3-{4-[2-Amino-6-(4-benzyl-piperazin-1-yl)-pyrimidin-4-yloxy]-phenyl}-2-(biphenyl-4-yloxy)-2-methyl-propionic acid], for which the half-inhibitory concentration (IC50) is above 50 µM in the data set on MCF-7, 40 µM with T24, above 50 µM with HepG2 and 34.1 µM with SPC-A1. Moreover, the concentration for a half-maximal effect (EC50) at PPAR-γ was found to be 2.57 µM.

With `COc1ccc(OC(C)(Cc2ccc(Oc3cc(N4CCN(Cc5ccccc5)CC4)nc(N)n3)cc2)C(=O)O)cc1` (stereo not shown) [Compound 30, 3-{4-[2-Amino-6-(4-benzyl-piperazin-1-yl)-pyrimidin-4-yloxy]-phenyl}-2-(4-methoxy-phenoxy)-2-methyl-propionic acid], the IC50 with MCF-7 was 42.8 µM; with T24, above 50 µM; with HepG2, above 50 µM; in the data set on SPC-A1, 38.9 µM. This compound returned an EC50 at PPAR-γ of 5.75 µM.

On to `Cc1ccc(OC(C)(Cc2ccc(Oc3cc(N4CCN(Cc5ccccc5)CC4)nc(N)n3)cc2)C(=O)O)cc1` (stereo not shown) [Compound 31, 3-{4-[2-Amino-6-(4-benzyl-piperazin-1-yl)-pyrimidin-4-yloxy]-phenyl}-2-methyl-2-p-tolyloxy-propionic acid], for which the IC50 came to 29.3 µM with MCF-7, 40.8 µM in the data set with T24, 45.5 µM in the data set with HepG2 and 35.3 µM with SPC-A1. The compound further yielded an EC50 on PPAR-γ of 3.8 µM.

For the compound `CC(Cc1ccc(Oc2cc(N3CCN(Cc4ccccc4)CC3)nc(N)n2)cc1)(Oc1ccc(C(F)(F)F)cc1)C(=O)O` (stereo not shown) [Compound 32, 3-{4-[2-Amino-6-(4-benzyl-piperazin-1-yl)-pyrimidin-4-yloxy]-phenyl}-2-methyl-2-(4-trifluoromethyl-phenoxy)-propionic acid], the half-inhibitory concentration (IC50) in the data set on MCF-7 was determined as 34.2 µM; with T24, 37.7 µM; in the data set on HepG2 it was 30 µM; with SPC-A1, 28 µM. Further, a half-maximal effect at PPAR-γ (EC50) was put at 2.24 µM.

For `CC(Cc1ccc(Oc2cc(N3CCN(Cc4ccco4)CC3)nc(N)n2)cc1)(Oc1ccccc1)C(=O)O` (stereo not shown) [Compound 37, 3-{4-[2-Amino-6-(4-furan-2-ylmethyl-piperazin-1-yl)-pyrimidin-4-yloxy]phenyl}-2-methyl-2-phenoxy-propionic acid], the IC50 in the data set with MCF-7 is 47.6 µM; in the data set with T24, 40.6 µM; in the data set on HepG2, above 50 µM; in the data set with SPC-A1, 37.6 µM. The EC50 on PPAR-γ was determined as 3.89 µM.
